Drawing on patent publication US10669240B2, “5-substituted indazole-3-carboxamides and preparation and use thereof” (Samumed, LLC, priority 2014, dated 2020), this text covers EC50 for 39 compounds.

The target in the test is DYRK1A (Homo sapiens (Human), UniProt Q13627). Put plainly: DYRK1A activity Tau assay: pSer396 Tau in SH-SY5Y cells by ELISA / western blot. The settings on record: overnight (16-18 h) exposure. The format is cell-based.

Description: In another example, in vitro assays for DYRK1A biological activity may be used, e.g. regulation of microtubule-associated protein tau (MAPT/Tau) phosphorylation in neuronal cell line such as the human SH-SY5Y neuroblastoma cell line. Assays for DYRK1a-regulated level of phosphorylation can include monitoring levels of basal pSer396 Tau, which can be measured, for example, by serial dilutions of a candidate inhibitor composition using a ten micromolar top concentration and detected by ELISA or Western Blotting. An exemplary assay for DYRK-1a-regulated phosphorylation uses the SH-SY5Y cells cultured in a 96 well plate format for a period of time sufficient to stabilize microtubules and Tau phosphorylation, usually at least 2 days, then treated with a 1/3 serial dilution of compounds overnight and lysed. The cell lysate is resolved by SDS PAGE, then transferred to nitrocellulose and probed with an antibody specific for pSer396 Tau.
In a further example, the activity of a candidate compound can be measured by ELISA by adding the lysate mentioned above onto total Tau-coated plates and detected with a specific pSer396 antibody.

In the case of `CC(C)CNC(=O)c1n[nH]c2ccc(-c3cccnc3F)cc12` [Compound 1336, 5-(2-Fluoropyridin-3-yl)-N-isobutyl-1H-indazole-3-carboxamide], the EC50 was found to be 22 nM.
In the case of `CCN1CCC(NC(=O)c2n[nH]c3ccc(-c4cncc(Cl)c4)cc23)CC1` [Compound 1291, 5-(5-Chloropyridin-3-yl)-N-(1-ethylpiperidin-4-yl)-1H-indazole-3-carboxamide], the concentration for a half-maximal effect (EC50) came out at 39 nM.
Next, `O=C(NC1CCN(CC2CC2)CC1)c1n[nH]c2ccc(-c3cncc(F)c3)cc12` [Compound 1312, N-(1-(Cyclopropylmethyl)piperidin-4-yl)-5-(5-fluoropyridin-3-yl)-1H-indazole-3-carboxamide]: 33 nM.
Next, `CC(C)NC(=O)c1n[nH]c2ccc(-c3cncc(Cl)c3)cc12` [Compound 1247, 5-(5-Chloropyridin-3-yl)-N-isopropyl-1H-indazole-3-carboxamide]: 53 nM; `CN(C)Cc1cncc(-c2ccc3[nH]nc(C(=O)NC(C)(C)C)c3c2)c1` [Compound 1198, N-(tert-Butyl)-5-(5-((dimethylamino)methyl)pyridin-3-yl)-1H-indazole-3-carboxamide]: 491 nM; `[2H]C([2H])(c1cncc(-c2ccc3[nH]nc(C(=O)Nc4cccnc4)c3c2)c1)N1CCCCC1` [Compound 63, 5-(5-(piperidin-1-ylmethyl-d2)pyridin-3-yl)-N-(pyridin-3-yl)-1H-indazole-3-carboxamide]: 1 nM.
Next, `CC(C)(C)NC(=O)c1n[nH]c2ccc(-c3cncc(CN4CCCC4)c3)cc12` [Compound 1200, N-(tert-Butyl)-5-(5-(pyrrolidin-1-ylmethyl)pyridin-3-yl)-1H-indazole-3-carboxamide]: 374 nM; `O=C(NC1CC1)c1n[nH]c2ccc(-c3cncc(CN4CCCC4)c3)cc12` [Compound 148, N-Cyclopropyl-5-(5-(pyrrolidin-1-ylmethyl)pyridin-3-yl)-1H-indazole-3-carboxamide]: 11 nM; `O=C(Nc1ccnc(N2CCCCC2)c1)c1n[nH]c2ccc(-c3cncc(CN4CCCCC4)c3)cc12` [Compound 101, N-(2-(Piperidin-1-yl)pyridin-4-yl)-5-(5-(piperidin-1-ylmethyl)pyridin-3-yl)-1H-indazole-3-carboxamide]: 1 nM.
In turn, `O=C(NCCN1CCCC1)c1n[nH]c2ccc(-c3cccnc3)cc12` [Compound 1195, 5-(Pyridin-3-yl)-N-(2-(pyrrolidin-1-yl)ethyl)-1H-indazole-3-carboxamide] showed an EC50 of 4 nM.
In turn, `CN1CCN(Cc2ccc(NC(=O)c3n[nH]c4ccc(-c5cccc(F)c5F)cc34)cc2)CC1` [Compound 1332, 5-(2,3-Difluorophenyl)-N-(4-((4-methylpiperazin-1-yl)methyl)phenyl)-1H-indazole-3-carboxamide] displayed an EC50 of 14 nM.
Next, `O=C(NC1CCCC1)c1n[nH]c2ccc(-c3cncc(F)c3)cc12` [Compound 1280, N-Cyclopentyl-5-(5-fluoropyridin-3-yl)-1H-indazole-3-carboxamide]: 32 nM.
Next, `O=C(NC1CC1)c1n[nH]c2ccc(-c3cncc(N4CCCC4)c3)cc12` [Compound 143, N-Cyclopropyl-5-(5-(pyrrolidin-1-yl)pyridin-3-yl)-1H-indazole-3-carboxamide]: 10 nM; `CC(C)(C)NC(=O)c1n[nH]c2ccc(-c3cncc(CN4CCC4)c3)cc12` [Compound 1206, 5-(5-(Azetidin-1-ylmethyl)pyridin-3-yl)-N-(tert-butyl)-1H-indazole-3-carboxamide]: 207 nM.
Take `CN1CCC(N(C)C(=O)c2n[nH]c3ccc(-c4cccnc4)cc23)CC1` [Compound 1337, N-Methyl-N-(1-methylpiperidin-4-yl)-5-(pyridin-3-yl)-1H-indazole-3-carboxamide]: the EC50 came to 2500 nM.
The compound `O=C(Nc1cnc(C(F)(F)F)nc1)c1n[nH]c2ccc(-c3cncc(CN4CCCCC4)c3)cc12` [Compound 1116, 5-(5-(Piperidin-1-ylmethyl)pyridin-3-yl)-N-(2-(trifluoromethyl)pyrimidin-5-yl)-1H-indazole-3-carboxamide] showed an EC50 of 1 nM.
Next, `O=C(Nc1ccnc(N2CCCC2)c1)c1n[nH]c2ccc(-c3cccnc3)cc12` [Compound 102, 5-(Pyridin-3-yl)-N-(2-(pyrrolidin-1-yl)pyridin-4-yl)-1H-indazole-3-carboxamide]: 4 nM.
Next, `CC(C)(F)CN1CCC(NC(=O)c2n[nH]c3ccc(-c4cccnc4F)cc23)CC1` [Compound 1320, N-(1-(2-Fluoro-2-methylpropyl)piperidin-4-yl)-5-(2-fluoropyridin-3-yl)-1H-indazole-3-carboxamide]: 42 nM; `CN1CCC(NC(=O)c2n[nH]c3ccc(-c4ccc(F)cc4)cc23)CC1` [Compound 17, 5-(4-Fluorophenyl)-N-(1-methylpiperidin-4-yl)-1H-indazole-3-carboxamide]: 9000 nM.
Next, `O=C(NC1CC1)c1n[nH]c2ccc(-c3cncc(CN4CCC4)c3)cc12` [Compound 1271, 5-(5-(Azetidin-1-ylmethyl)pyridin-3-yl)-N-cyclopropyl-1H-indazole-3-carboxamide]: 19 nM; `CN1CCC2(CC1)CC(NC(=O)c1n[nH]c3ccc(-c4cncc(F)c4)cc13)C2` [Compound 1277, 5-(5-Fluoropyridin-3-yl)-N-(7-methyl-7-azaspiro[3.5]nonan-2-yl)-1H-indazole-3-carboxamide]: 11 nM.
As for `CN(C)Cc1cncc(-c2ccc3[nH]nc(C(=O)NC4Cc5ccccc5C4)c3c2)c1` [Compound 23, N-(2,3-Dihydro-1H-inden-2-yl)-5-(5-((dimethylamino)methyl)pyridin-3-yl)-1H-indazole-3-carboxamide], the EC50 worked out at 31 nM. Compared with the last compound, the EC50 is about 2.8-fold higher.
The compound `O=C(NC1CCN(CC2CCC2)CC1)c1n[nH]c2ccc(-c3cccnc3)cc12` [Compound 1314, N-(1-(Cyclobutylmethyl)piperidin-4-yl)-5-(pyridin-3-yl)-1H-indazole-3-carboxamide] yielded an EC50 of 11 nM.
Next, `CN1CC2(CCC(NC(=O)c3n[nH]c4ccc(-c5cncc(F)c5)cc34)CC2)C1` [Compound 1289, 5-(5-Fluoropyridin-3-yl)-N-(2-methyl-2-azaspiro[3.5]nonan-7-yl)-1H-indazole-3-carboxamide]: 29 nM.
Next, `O=C(NC1(c2ccccc2)CC1)c1n[nH]c2ccc(-c3cncc(CN4CCCCC4)c3)cc12` [Compound 36, N-(1-Phenylcyclopropyl)-5-(5-(piperidin-1-ylmethyl)pyridin-3-yl)-1H-indazole-3-carboxamide]: 158 nM.
Regarding `O=C(Nc1ncccc1C(F)(F)F)c1n[nH]c2ccc(-c3cncc(CN4CCCCC4)c3)cc12` [Compound 59, 5-(5-(Piperidin-1-ylmethyl)pyridin-3-yl)-N-(3-(trifluoromethyl)pyridin-2-yl)-1H-indazole-3-carboxamide], the EC50 is 13 nM.
`CCN(CC)Cc1cncc(-c2ccc3[nH]nc(C(=O)NC4CC4)c3c2)c1` [Compound 1270, N-Cyclopropyl-5-(5-((diethylamino)methyl)pyridin-3-yl)-1H-indazole-3-carboxamide] registered an EC50 of 7 nM.
In turn, `O=C(NCc1cccc(F)c1)c1n[nH]c2ccc(-c3cc(F)cc(CN4CCCCC4)c3)cc12` [Compound 30, 5-(3-Fluoro-5-(piperidin-1-ylmethyl)phenyl)-N-(3-fluorobenzyl)-1H-indazole-3-carboxamide] displayed an EC50 of 120 nM.
`CC(C)CNC(=O)c1n[nH]c2ccc(-c3ccc(F)nc3)cc12` [Compound 1335, 5-(6-Fluoropyridin-3-yl)-N-isobutyl-1H-indazole-3-carboxamide] returned an EC50 of 62 nM. This EC50 lies about 1.9-fold lower than the previous one.
Next, `CCN1CCC(NC(=O)c2n[nH]c3ccc(-c4cccc(OC)c4F)cc23)CC1` [Compound 1338, N-(1-Ethylpiperidin-4-yl)-5-(2-fluoro-3-methoxyphenyl)-1H-indazole-3-carboxamide]: 1800 nM.
Next, `CC(C)(C)N1CCC(NC(=O)c2n[nH]c3ccc(-c4cncc(N5CCCC5)c4)cc23)CC1` [Compound 293, N-(1-(tert-Butyl)piperidin-4-yl)-5-(5-(pyrrolidin-1-yl)pyridin-3-yl)-1H-indazole-3-carboxamide]: 22 nM; `CC(C)(F)CN1CCC(NC(=O)c2n[nH]c3ccc(-c4cncc(F)c4)cc23)CC1` [Compound 1310, N-(1-(2-Fluoro-2-methylpropyl)piperidin-4-yl)-5-(5-fluoropyridin-3-yl)-1H-indazole-3-carboxamide]: 19 nM; `CC(C)(C)NC(=O)c1n[nH]c2ccc(-c3cncc(CN4CCCCC4)c3)cc12` [Compound 1202, N-(tert-Butyl)-5-(5-(piperidin-1-ylmethyl)pyridin-3-yl)-1H-indazole-3-carboxamide]: 144 nM.
Next, `CC(C)CN1CCC(NC(=O)c2n[nH]c3cc(F)c(-c4cccnc4)cc23)CC1` [Compound 1308, 6-Fluoro-N-(1-isobutylpiperidin-4-yl)-5-(pyridin-3-yl)-1H-indazole-3-carboxamide]: 17 nM; `O=C(Nc1ccc(CN2CCCC2)cc1)c1n[nH]c2cc(F)c(-c3cccnc3)cc12` [Compound 1345, 6-Fluoro-5-(pyridin-3-yl)-N-(4-(pyrrolidin-1-ylmethyl)phenyl)-1H-indazole-3-carboxamide]: 22 nM; `CC[C@H](C)NC(=O)c1n[nH]c2ccc(-c3cccnc3)cc12` [Compound 1258, (S)—N-(sec-butyl)-5-(pyridin-3-yl)-1H-indazole-3-carboxamide]: 20 nM.
`CC(C)NC(=O)c1n[nH]c2ccc(-c3cccnc3)cc12` [Compound 7, N-Isopropyl-5-(pyridin-3-yl)-1H-indazole-3-carboxamide] registered a 50% effective concentration (EC50) of 55 nM.
Turning to `CC#CCN1CCC(NC(=O)c2n[nH]c3ccc(-c4cccnc4)cc23)CC1` [Compound 369, N-(1-(But-2-yn-1-yl)piperidin-4-yl)-5-(pyridin-3-yl)-1H-indazole-3-carboxamide], the midpoint of the response, the EC50, lay at 7 nM.
Next, `O=C(NCCN1CCOCC1)c1n[nH]c2ccc(-c3cccc(F)c3F)cc12` [Compound 1268, 5-(2,3-Difluorophenyl)-N-(2-morpholinoethyl)-1H-indazole-3-carboxamide]: 23 nM.
